Conditions: Liquid, Vibrating tube method

CCO [ethanol]
mass density [kg/m3]
Conditions	100 kPa	5000 kPa	10000 kPa	15000 kPa	20000 kPa	25000 kPa	30000 kPa	35000 kPa	40000 kPa	45000 kPa
283.15 K	798	802	805.9	809.5	813	816.4	819.7	822.8	825.9	828.8
293.15 K	789.5	793.7	797.8	801.6	805.3	808.9	812.3	815.6	818.7	821.8
303.15 K	780.9	785.3	789.6	793.7	797.5	801.3	804.8	808.2	811.5	814.7
313.15 K	772.1	776.8	781.3	785.6	789.6	793.5	797.2	800.8	804.2	807.6
323.15 K	763.3	768.3	773	777.6	781.8	785.9	789.7	793.5	797.1	800.5
333.15 K	754	759.3	764.3	769.1	773.6	777.8	781.9	785.8	789.5	793.1
343.15 K	744.5	750.1	755.5	760.5	765.3	769.8	774	778.1	782	785.7
353.15 K	–	740.6	746.4	751.7	756.7	761.5	766	770.2	774.3	778.2

CC1CCCCC1 [methylcyclohexane]
mass density [kg/m3]
Conditions	100 kPa	5000 kPa	10000 kPa	15000 kPa	20000 kPa	25000 kPa	30000 kPa	35000 kPa	40000 kPa	45000 kPa
283.15 K	777.6	781.4	785.2	788.7	792.1	795.3	798.5	801.5	804.4	807.3
293.15 K	769	773	777	780.7	784.3	787.8	791.1	794.2	797.3	800.2
303.15 K	760.4	764.7	768.9	772.8	776.6	780.2	783.7	787	790.2	793.3
313.15 K	751.7	756.2	760.7	764.8	768.8	772.7	776.3	779.8	783.1	786.4
323.15 K	742.9	747.7	752.5	756.9	761.1	765.1	769	772.6	776.1	779.5
333.15 K	733.9	739	744.1	748.8	753.3	757.5	761.5	765.4	769	772.5
343.15 K	724.8	730.4	735.8	740.8	745.6	750	754.2	758.2	762.1	765.7
353.15 K	715.7	721.7	727.4	732.8	737.8	742.5	747	751.2	755.2	759

Reference: the NIST ThermoML archive (doi:10.1016/j.jct.2005.03.016)
